Columns and labels:
Full-length human PRMT8 = target: T1, Full-length human PRMT8 (Homo sapiens, UniProt Q9NR22); test: PRMT8 biochemical assay (3H-SAM Flashplate, peptide substrate)
T1 construct: Full-length human PRMT8 (NM_019854.4) isoform 1 transcript clone; made in house
Excerpt: General Materials. S-adenosylmethionine (SAM), S-adenosylhomocysteine (SAH), bicine, Tween20, dimethylsulfoxide (DMSO), bovine skin gelatin (BSG), isopropyl-β-D-thiogalactopyranoside (IPTG), and Tris(2-carboxyethyl)phosphine hydrochloride solution (TCEP) were purchased from Sigma-Aldrich at the highest level of purity possible. ^3H-SAM was purchase from American Radiolabeled Chemicals with a specific activity of 80 Ci/mmol. 384-well streptavidin Flashplates were purchased from PerkinElmer.
Substrates. Peptide representative of human histone H4 residues 31-45 was synthesized with an N-terminal linker-affinity tag motif and a C-terminal amide cap by 21st Century Biochemicals.
Protein Expression. E. coli (BL21(DE3) Gold, Stratagene) made competent by the CaCl2 method were transformed with the PRMT8 construct and ampicillin selection. Protein over-expression was accomplished by growing the PRMT8 expressing E. coli clone and inducing expression with 0.3 mM IPTG at 16° C. The culture was grown for 12 hours, harvested by centrifugation, and stored at −80° C. for purification.
Protein Purification. […] GST-tagged PRMT8 was eluted with 50 mM Tris, 2 mM glutathione, pH 7.8. Pooled fractions were cleaved by thrombin (10 U) and dialysed in buffer A. GST was removed by reloading the cleaved protein sample onto glutathione sepharose column and PRMT8 was collected in the flow-through fractions. PRMT8 was purified further by ceramic hydroxyapatite chromatography. The column was washed with 50 mM phosphate buffer, 100 mM NaCl, 5% glycerol, 5 mM β-mercaptoethanol, pH 7.8 and PRMT8 was eluted by 100 mM phosphate in the same buffer. Protein was concentrated and buffer was exchanged to 50 mM Tris, 300 mM NaCl, 10% glycerol, 5 mM β-mercaptoethanol, pH 7.8 by ultrafiltration.
General Procedure for PRMT8 Enzyme Assays on Peptide Substrates. The assays were all performed in a buffer consisting of 20 mM Bicine (pH=7.6), 1 mM TCEP, 0.005% BSG, and 0.002% Tween 20, prepared on the day of use. […] DMSO (1 ul) was added to Columns 11, 12, 23, 24, rows A-H for the maximum signal control and 1 ul of SAH, a known product and inhibitor of PRMT8, was added to columns 11, 12, 23, 24, rows I-P for the minimum signal control. A cocktail (40 ul) containing the PRMT8 enzyme was added by Multidrop Combi (Thermo-Fisher). The compounds were allowed to incubate with PRMT8 for 30 min at room temperature, then a cocktail (10 ul) containing ^3H-SAM and peptide was added to initiate the reaction (final volume=51 ul). […] The assays were stopped by the addition of non-radiolabeled SAM (10 ul) to a final concentration of 400 uM, which dilutes the ^3H-SAM to a level where its incorporation into the peptide substrate is no longer detectable. 50 ul of the reaction in the 384-well polypropylene plate was then transferred to a 384-well Flashplate and the biotinylated peptides were allowed to bind to the streptavidin surface for at least 1 hour before being washed once with 0.1% Tween20 in a Biotek ELx405 plate washer. The plates were then read in a PerkinElmer TopCount plate reader to measure the quantity of ^3H-labeled peptide bound to the Flashplate surface, measured as disintegrations per minute (dpm) or alternatively, referred to as counts per minute (cpm).
Where dpm=disintegrations per minute, cmpd=signal in assay well, and min and max are the respective minimum and maximum signal controls.
Where top and bottom are the normally allowed to float, but may be fixed at 100 or 0 respectively in a 3-parameter fit. The Hill Coefficient normally allowed to float but may also be fixed at 1 in a 3-parameter fit. Y is the % inhibition and X is the compound concentration.

[1] = test system: mono-methyl arginine in RKO cells; test: RKO methylation assay, In Cell Western for mono-methyl arginine and DNA content; format: cell-based; conditions: Homo sapiens; In Cell Western, RKO cells, 72 hours, percent activation of mono-methyl arginine signal; read-out: EC30

T1 sequence (Q9NR22 whole entry, canonical isoform): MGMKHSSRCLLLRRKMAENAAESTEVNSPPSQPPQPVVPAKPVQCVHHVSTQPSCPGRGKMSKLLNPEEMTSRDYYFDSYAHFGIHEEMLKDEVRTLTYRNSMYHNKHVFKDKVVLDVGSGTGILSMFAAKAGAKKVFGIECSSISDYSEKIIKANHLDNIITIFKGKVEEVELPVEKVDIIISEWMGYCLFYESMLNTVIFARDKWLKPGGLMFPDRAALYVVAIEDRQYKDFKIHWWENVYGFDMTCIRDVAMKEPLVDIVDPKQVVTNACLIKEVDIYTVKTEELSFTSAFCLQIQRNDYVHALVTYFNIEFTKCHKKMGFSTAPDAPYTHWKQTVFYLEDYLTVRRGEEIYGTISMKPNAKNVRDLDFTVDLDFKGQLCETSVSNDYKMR

Row | Compound | IC50 (Full-length human PRMT8) [µM] | EC30 [1] [µM]
1 | Cc1cc(F)ccc1-c1n[nH]cc1CN(C)CCN [Compound 152] | 0.101 to 1 | 3.01 to 12
2 | COc1ccc(-c2n[nH]cc2CN(C)CCN)cc1 [Compound 153] | 0.101 to 1 | < 3
3 | COc1ccc(-c2n[nH]cc2CN(C)CCN)c(C(F)(F)F)c1 [Compound 154] | 3.01 to 10 | > 12
4 | COc1ccc(-c2n[nH]cc2CN(C)CCN)c(C)c1 [Compound 155] | 0.101 to 1 | 3.01 to 12
5 | CN(CCN)Cc1c[nH]nc1-c1cc(Cl)ccc1F [Compound 156] | 1.01 to 3 | 3.01 to 12
6 | COc1ccc(Cl)cc1-c1n[nH]cc1CN(C)CCN [Compound 157] | 3.01 to 10 | > 12
7 | Cc1ccc(C#N)cc1-c1n[nH]cc1CN(C)CCN [Compound 158] | > 10 | > 12
8 | Cc1ccc(F)cc1-c1n[nH]cc1CN(C)CCN [Compound 159] | 0.101 to 1 | 3.01 to 12
9 | COc1ccc(F)cc1-c1n[nH]cc1CN(C)CCN [Compound 160] | 3.01 to 10 | > 12
10 | Cc1ccccc1-c1n[nH]cc1CN(C)CCN [Compound 161] | 1.01 to 3 | > 12
11 | Cc1ccc(-c2n[nH]cc2CN(C)CCN)cc1 [Compound 162] | 0.101 to 1 | < 3
12 | CCN(C)C(=O)c1ccc(-c2n[nH]cc2CN(C)CCN)cc1 [Compound 163] | 1.01 to 3 | > 12
13 | CC(C)CN(C)C(=O)c1ccc(-c2n[nH]cc2CN(C)CCN)cc1 [Compound 164] | 1.01 to 3 | > 12
14 | CCOc1ccc(-c2n[nH]cc2CN(C)CCN)cc1 [Compound 166] | 0.101 to 1 | < 3
15 | COCCOc1ccc(-c2n[nH]cc2CN(C)CCN)cc1 [Compound 167] | 0.101 to 1 | < 3
16 | Cc1[nH]nc(-c2ccc(F)cc2)c1CN(C)CCN [Compound 169] | 1.01 to 3 | > 12
17 | CC(C)Cc1ccc(-c2c[nH]nc2CN(C)CCN)cc1 [Compound 170] | 0.101 to 1 | < 3
18 | NCCN(CCO)Cc1c[nH]nc1-c1ccc(F)cc1 [Compound 171] | 1.01 to 3 | > 12
19 | CN(CCN)Cc1c[nH]nc1-c1ccc(OCCN2CCOCC2)cc1 [Compound 172] | 3.01 to 10 | > 12
20 | CN(CCN)Cc1c[nH]nc1-c1ccc2c(c1)NC(=O)CO2 [Compound 173] | 3.01 to 10 | > 12

Source: US9346761B2, “Arginine methyltransferase inhibitors and uses thereof” (Epizyme, Inc., priority 2013, dated 2016)
